Target: T1, hM1 mAChR (Homo sapiens, UniProt P11229)
T1 construct: expressed in transfected cells
T1 sequence (P11229 1-460): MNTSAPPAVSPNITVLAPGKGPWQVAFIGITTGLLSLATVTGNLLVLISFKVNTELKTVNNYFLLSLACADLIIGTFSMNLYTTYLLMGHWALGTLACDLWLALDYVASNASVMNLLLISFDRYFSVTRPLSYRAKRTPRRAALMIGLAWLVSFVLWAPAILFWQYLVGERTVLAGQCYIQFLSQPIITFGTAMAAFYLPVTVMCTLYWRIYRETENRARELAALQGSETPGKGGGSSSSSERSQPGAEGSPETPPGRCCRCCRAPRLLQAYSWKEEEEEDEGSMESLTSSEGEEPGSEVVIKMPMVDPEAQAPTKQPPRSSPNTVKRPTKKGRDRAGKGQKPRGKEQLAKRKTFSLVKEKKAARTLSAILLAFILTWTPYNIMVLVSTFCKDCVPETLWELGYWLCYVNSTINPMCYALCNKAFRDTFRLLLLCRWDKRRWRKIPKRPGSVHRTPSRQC
Test: IP1 accumulation assay (ACh concentration-response curves in absence or presence of modulator)
Assay type: cell-based
Conditions: FlpIn CHO hM1 cells, mean ± SEM, 3 experiments; for ΔpEC50 [1 μM]: change in ACh pEC50 in presence of M1 PAM compared to control curve / activation at 1 µM: 1 μM modulator; for activation at 1 µM: read-out: Δbaseline [1 μM]: change in basal response in presence of M1 PAM compared to control curve; for activation at 10 µM: read-out: Δbaseline [10 μM]: change in basal response in presence of M1 PAM compared to control curve
Description: Functional activity of the synthesized analogues as racemic mixtures was investigated in IP1 accumulation assays at the M1 mAChR, as described previously.[13–14] ACh concentration-response curves were generated in the absence or presence of a 1 and 10 μM concentration of each modulator. The change in baseline activity (Δbaseline) is an approximate measure of direct allosteric agonism (τB), whereas the pEC50 shift (ΔpEC50) is an approximate measure of functional cooperativity (αβ) of each modulator with ACh in the investigated signalling pathway. We aimed to identify modulators with various degrees of allosteric agonism and modulatory effects on ACh response, as these could generate distinct in vivo outcomes for applications in different conditions in the CNS or gastrointestinal (GI) tract.[[10g,h,j]]
The compounds were then fully characterised in two functional assays (Figure 2C and D); the Gq-coupled IP1 accumulation assay (Figure S2), which was used for the initial screening of the compounds, and a β-arrestin 2 recruitment assay (Figure S3). The operational efficacy (τB) values for the modulators and their functional cooperativity estimates with ACh (logαβACh) at both signalling pathways were estimated by applying an operational model of allosterism and agonism to the data [Eq. (3)],[16] and are listed in Table 5.
FlpIn CHO cells stably expressing the hM1 mAChR were seeded at 25000 per well of 96-well transparent cell culture plates and grown overnight. […] Cells were then stimulated with increasing concentration of ACh in the absence or presence of increasing concentrations of each modulator for 1 h at 37°C. […] Seven μL of cell lysates were transferred into wells of 384-well Proxiplates (Perki-nElmer Life Sciences), and IP1 levels were measured using the IP-One assay kit (Cisbio, Codolet, France). […] The signal was expressed as the HTRF ratio, interpolated from the standard curve, and normalized to the maximum response to ACh.
Changes in both baseline and pEC50 were quantified by subtracting the estimates at each M1 PAM concentrations with the control values. Propagation of the error on baseline and potency values were determined as follows [Eq. (1)]: σΔ=σPAM2+σcont.2 where σΔ is the standard error of the mean (SEM) for the change in value, and σPAM and σcont. are the SEM from the three-parameter logistic equation analysis in presence or absence of M1 PAM, respectively.
Functional interaction studies between ACh and allosteric modulators in IP1 and β-arrestin 2 recruitment assays were analysed according to a three-parameter logistic equation or the following operational model of allosterism and agonism [Eq. (3)].[16] E=Basal+(Em−Basal)([A](KB+αβ[B])+τB[B]EC50)^n/EC50n(KB+[B])^n+([A](KB+αβ[B])+τB[B]EC50)^n where Em is the maximal possible system response, and Basal is the response in the absence of agonist. [A] and [B] are concentrations of orthosteric and allosteric ligands, respectively. KB is the equilibrium dissociation constant of allosteric ligand, and EC50 is the concentration of orthosteric agonist required to achieve half maximal response. α and β represent the magnitude of the allosteric effects on orthosteric ligand affinity and efficacy, respectively; τB is the efficacy of allosteric ligand, and n is the slope factor of the transducer function that links occupancy to response.

Molecule | ΔpEC50 [1 μM]: change in ACh pEC50 in presence of M1 PAM compared to control curve | activation at 1 µM | ΔpEC50 [10 μM]: change in ACh pEC50 in presence of M1 PAM compared to control curve (10 μM modulator) | activation at 10 µM (10 μM modulator) | Δbaseline [10 μM]: change in basal response in presence of M1 PAM compared to control curve (10 μM modulator)
Cn1cc(-c2ccc(COc3cccc(O)c3-c3ccn(C4CCCCC4O)c(=O)c3)cc2)cn1 (centres unmarked) [Compound 7g, 4-(2-Hydroxy-6-((4-(1-methyl-1H-pyrazol-4-yl)benzyl)oxy)phenyl)-1-(2-hydroxycyclohexyl)pyridin-2(1H)-one] | 0.14±0.19 | 12.8 ± 4.4% | 0.35±0.34 | 45.8 ± 4.8% | 
Cn1cc(-c2ccc(COc3ccccc3-c3ccc(-c4ccccc4O)cc3)cc2)cn1 [Compound 19, 2“-((4-(1-Methyl-1H-pyrazol-4-yl)benzyl)oxy)-[1,1’:4’,1“-terphenyl]-2-ol] |  |  | 0.27±0.06 |  | 
Cn1cc(-c2ccc(COc3ccncc3-c3ccn(C4CCCCC4O)c(=O)c3)cc2)cn1 (centres unmarked) [Compound 7d, 1’-(2-Hydroxycyclohexyl)-4-((4-(1-methyl-1H-pyrazol-4-yl)benzyl)oxy)-[3,4’-bipyridin]-2’(1’H)-one] | 0.04±0.09 | -1.09% | 0.21±0.10 | 1.24 ± 3% | 
Cc1ccc(OCc2ccc(-c3cnn(C)c3)cc2)c(-c2ccn(C3CCCCC3O)c(=O)c2)c1 (centres unmarked) [Compound 7a, 1-(2-Hydroxycyclohexyl)-4-(5-methyl-2-((4-(1-methyl-1H-pyrazol-4-yl)benzyl)oxy)phenyl)pyridin-2(1H)-one] |  | 0.47 ± 2% | 0.41±0.07 | 4.4 ± 2% | 
4-(2-(Benzyloxy)phenyl)-1-(2-hydroxycyclohexyl)pyridin-2(1H)-one [Compound 27d] | 0.75±0.06 |  | 1.83±0.11 |  | 54.6±1.9 % of ACh maximal (Emax) response
Cn1cc(-c2ccc(COc3cnccc3-c3ccn(C4CCCCC4O)c(=O)c3)cc2)cn1 (centres unmarked) [Compound 7e, 1-(2-Hydroxycyclohexyl)-3’-((4-(1-methyl-1H-pyrazol-4-yl)benzyl)oxy)-[4,4’-bipyridin]-2(1H)-one] | 1.17±0.22 | 41.9 ± 4.4% | 1.47±0.35 | 79.4 ± 2.9% | 
O=c1cc(-c2ccccc2OCc2ccc(-n3cccn3)cc2)ncn1C1CCCCC1O (centres unmarked) [Compound 27c, 6-(2-((4-(1H-Pyrazol-1-yl)benzyl)oxy)phenyl)-3-(2-hydroxycyclo-hexyl)pyrimidin-4(3H)-one] |  | 100% |  | 100% | 
Cc1ccc(-c2ccn(C3CCCCC3O)c(=O)c2)c(OCc2ccc(-c3cnn(C)c3)cc2)c1 (centres unmarked) [Compound 7b, 1-(2-Hydroxycyclohexyl)-4-(4-methyl-2-((4-(1-methyl-1H-pyrazol-4-yl)benzyl)oxy)phenyl)pyridin-2(1H)-one] |  | 3.5 ± 1.9% | 0.75±0.08 | 10.7 ± 2% | 
Cn1cc(-c2ccc(Cn3cccc(-c4ccn(C5CCCCC5O)c(=O)c4)c3=O)cc2)cn1 (centres unmarked) [Compound 9, 1’-(2-Hydroxycyclohexyl)-1-(4-(1-methyl-1H-pyrazol-4-yl)benzyl)-[3,4’-bipyridine]-2,2’(1H,1’H)-dione] | 0.12±0.09 | 5 ± 2% | 0.69±0.08 | 5.6 ± 2% | 
Cc1cc(OCc2ccc(-c3cnn(C)c3)cc2)c(-c2ccn(C3CCCCC3O)c(=O)c2)cc1C (centres unmarked) [Compound 7c, 4-(4,5-Dimethyl-2-((4-(1-methyl-1H-pyrazol-4-yl)benzyl)oxy)phenyl)-1-(2-hydroxycyclohexyl)pyridin-2(1H)-one] |  | -1.7% | 0.41±0.08 | 2.8 ± 1.9% | 

More lines, main results first:

ΔpEC50 [1 μM]: change in ACh pEC50 in presence of M1 PAM compared to control curve | activation at 1 µM | ΔpEC50 [10 μM]: change in ACh pEC50 in presence of M1 PAM compared to control curve (10 μM modulator) | activation at 10 µM (10 μM modulator) | Molecule | Δbaseline [10 μM]: change in basal response in presence of M1 PAM compared to control curve (10 μM modulator)
 | 100% |  | 100% | Cn1cc(-c2ccc(COc3ccsc3-c3cc(=O)n(C4CCCCC4O)cn3)cc2)cn1 (centres unmarked) [Compound 26b, 3-(2-Hydroxycyclohexyl)-6-(3-((4-(1-methyl-1H-pyrazol-4-yl)benzyl)oxy)thiophen-2-yl)pyrimidin-4(3H)-one] | 
0.40±0.24 | 53.7 ± 3.8% | 0.26±0.55 | 72.9 ± 3.6% | COC1CCCCC1n1cnc(-c2ccccc2OCc2ccc(-c3cnn(C)c3)cc2)cc1=O (centres unmarked) [Compound 28a, 3-(2-Methoxycyclohexyl)-6-(2-((4-(1-methyl-1H-pyrazol-4-yl)benzyl)oxy)phenyl)pyrimidin-4(3H)-one] | 
 | 5 ± 1.7% | 0.17±0.06 | -1.9% | Cn1cc(-c2ccc(COc3ccccc3-c3ccn(C4CCCCC4)c(=O)c3)cc2)cn1 [Compound 13b, 1-Cyclohexyl-4-(2-((4-(1-methyl-1H-pyrazol-4-yl)benzyl)oxy)phenyl)pyridin-2(1H)-one] | 
0.03±0.06 | 5.8 ± 1.5% | 0.96±0.07 | 22.1 ± 1.6% | COC1CCCCC1n1ccc(-c2ccccc2OCc2ccc(-c3cnn(C)c3)cc2)cc1=O (centres unmarked) [Compound 14, 1-(2-Methoxycyclohexyl)-4-(2-((4-(1-methyl-1H-pyrazol-4-yl)benzyl)oxy)phenyl)pyridin-2(1H)-one] | 
1.49±0.42 | 82.1 ± 3% |  | 100% | Cn1cc(-c2ccc(COc3cccc(O)c3-c3cc(=O)n(C4CCCCC4O)cn3)cc2)cn1 (centres unmarked) [Compound 26d, 6-(2-Hydroxy-6-((4-(1-methyl-1H-pyrazol-4-yl)benzyl)oxy)phenyl)-3-(2-hydroxycyclohexyl)pyrimidin-4(3H)-one] | 
0.02±0.06 | 1.37 ± 1.6% |  | 5.99 ± 1.7% | COc1cccc(OCc2ccc(-c3cnn(C)c3)cc2)c1-c1cc(=O)n([C@H]2CCCC[C@@H]2O)cn1 (racemic) [Compound 26c, 3-(2-Hydroxycyclohexyl)-6-(2-methoxy-6-((4-(1-methyl-1H-pyra-zol-4-yl)benzyl)oxy)phenyl)pyrimidin-4(3H)-one] | 

Source: paper PMC7616174, “Development of Novel 4-Arylpyridin-2-one and 6-Arylpyrimidin-4-one Positive Allosteric Modulators of the M1 Muscarinic Acetylcholine Receptor” (ChemMedChem, 2020)
